This is an account of results in patent US8980906B2, “Pyridonemorphinan analogs and biological activity on opioid receptors” (Purdue Pharma L.P., priority 2012, dated 2015).

Assay type in all cases: biochemical
Experiment [1] concerns the target T1, μ-opioid receptor (Homo sapiens (Human), UniProt P35372). The experiment can be described thus: μ-opioid receptor [35S]GTPγS functional assay, HEK-293 or CHO cells. The procedure: (§1) μ-Opioid Receptor Functional Assay Procedures: [^35S]GTPγS functional assays were conducted using freshly thawed μ-receptor membranes prepared in-house from a cell line expressing recombinant μ opioid receptor in a HEK-293, CHO or U-2 OS cell background, or purchased from a commercial source (Perkin Elmer, Shelton, Conn.; or DiscovRx, Fremont, Calif.). Assay reactions were prepared by sequentially adding the following reagents to binding buffer (100 mM NaCl, 10 mM MgCl2, 20 mM HEPES, pH 7.4) on ice (final concentrations indicated): membrane protein (0.026 mg/mL), saponin ([…]), GDP ([…]) and [^35S]GTPγS (0.20 nM; Perkin Elmer, Shelton, Conn.). The prepared membrane solution (190 μl/well) was transferred to 96-shallow well polypropylene plates containing 10 μl of 20× concentrated stock solutions of the agonist [D-Ala^2, N-methyl-Phe^4 Gly-ol^5]-enkephalin (DAMGO) prepared in dimethyl sulfoxide (DMSO). Plates were incubated for 30 min at about 25° C. with shaking. Reactions were terminated by rapid filtration onto 96-well Unifilter GF/B filter plates (Perkin Elmer, Shelton, Conn.) using a 96-well tissue harvester (Perkin Elmer, Shelton, Conn.) followed by three filtration washes with 200 μl of ice-cold wash buffer (10 mM NaH2PO4, 10 mM Na2HPO4, pH 7.4). Filter plates were subsequently dried at 50° C. for 2-3 hours. BetaScint scintillation cocktail (Perkin Elmer, Shelton, Conn.) was added (50 μl/well) and plates were counted using a Packard Top-Count for 1 min/well. Data were analyzed using the sigmoidal dose-response curve fitting functions in GraphPad PRISM v. 3.0, or an in-house function for non-linear, sigmoidal dose-response curve-fitting.
(§2) μ-Opioid Receptor Functional Data: μ GTP EC50 is the concentration of a compound providing 50% of the maximal response for the compound at a μ-opioid receptor.
(§3) μ GTP Emax (%) is the maximal effect elicited by a compound relative to the effect elicited by DAMGO, a standard μ agonist. Generally, the μ GTP Emax (%) value measures the efficacy of a compound to treat or prevent pain or other Conditions.
(§4) In TABLE 2, activity response of certain Compounds of the Invention to the μ-, δ- and κ-opioid receptors was determined as described above for functional assays using HEK-293 or CHO cells.
A general note: GTPγS is a poorly hydrolysed GTP analogue; its binding reports G protein activation.

In experiment [2] the target is T1, μ-opioid receptor. The experiment can be described thus: μ-opioid receptor [35S]GTPγS functional assay, U-2 OS cells. Conditions: for Emax: relative to DAMGO, U-2 OS cells. The procedure:
as §1, §2, §3
(§5) The following TABLE 3 provides results on the activity response of certain Compounds of the Invention at the μ- and κ-opioid receptors determined as described above using U-2 OS cells.

The target of experiment [3] is T2, κ-opioid receptor (Homo sapiens (Human), UniProt P41145). The experiment can be described thus: κ-opioid receptor [35S]GTPγS functional assay, HEK-293 or CHO cells. How it is done: (§6) κ-Opioid Receptor Functional Assay Procedures: Functional [^35S]GTPγS binding assays were conducted as follows. κ opioid receptor membrane solution was prepared by sequentially adding final concentrations of 0.026 μg/μl κ membrane protein (in-house), 10 μg/mL saponin, 3 μM GDP and 0.20 nM [^35S]GTPγS to binding buffer (100 mM NaCl, 10 mM MgCl2, 20 mM HEPES, pH 7.4) on ice. The prepared membrane solution (190 μl/well) was transferred to 96-shallow well polypropylene plates containing 10 μl of 20× concentrated stock solutions of agonist prepared in DMSO. Plates were incubated for 30 min at a temperature of about 25° C. with shaking. Reactions were terminated by rapid filtration onto 96-well Unifilter GF/B filter plates (Perkin Elmer, Shelton, Conn.) using a 96-well tissue harvester (Packard) and followed by three filtration washes with 200 μl ice-cold binding buffer (10 mM NaH2PO4, 10 mM Na2HPO4, pH 7.4). Filter plates were subsequently dried at 50° C. for 2-3 hours. Fifty μl/well scintillation cocktail (Perkin Elmer, Shelton, Conn.) was added and plates were counted in a Packard Top-Count for 1 min/well.
(§7) κ-Opioid Receptor Functional Data: κ GTP EC50 is the concentration of a compound providing 50% of the maximal response for the compound at a κ receptor.
(§8) κ GTP Emax (%) is the maximal effect elicited by a compound relative to the effect elicited by U69,593.
as §4

In experiment [4] the target is T2, κ-opioid receptor. The experiment is described as follows: κ-opioid receptor [35S]GTPγS functional assay, U-2 OS cells. Particulars: for Emax: relative to U69,593, U-2 OS cells. The procedure: as §6, §7, §8, §5

In the case of `NC(=O)c1cc2c([nH]c1=O)C[C@]13CCN(CCc4ccccc4)[C@H](Cc4ccc(O)cc41)[C@]3(O)C2` [Compound 37, (6R,6aS,12aR)-2,6a-dihydroxy-10-oxo-15-phenethyl-6,6a,7,10,11,12-hexahydro-5H-6,12a-(epiminoethano)naphtho[2,1-g]quinoline-9-carboxamide], the EC50 on μ-opioid receptor [1] was 268 ± 53.1 nM; at μ-opioid receptor [2], 72.7 ± 3.87 nM; on κ-opioid receptor [3], greater than 20000 nM; on κ-opioid receptor [4] it was 374 ± 93.5 nM. The maximum response (Emax) on μ-opioid receptor [1] (relative to DAMGO, HEK-293 or CHO cells) came out at 98 ± 4.62%; at μ-opioid receptor [2] it was 71.3 ± 0.33%; on κ-opioid receptor [3] (relative to U69,593, HEK-293 or CHO cells), 2.5%; on κ-opioid receptor [4] it was 11.3 ± 1.45%.
On μ-opioid receptor [2], `CN(C)C(=O)c1cc2c([nH]c1=O)C[C@]13CCN(C)[C@H](Cc4ccc(O)cc41)[C@]3(O)C2` [Compound 46, (6R,6aS,12aR)-2,6a-dihydroxy-N,N,15-trimethyl-10-oxo-6,6a,7,10,11,12-hexahydro-5H-6,12a-(epiminoethano)naphtho[2,1-g]quinoline-9-carboxamide] came in with an EC50 of 157 ± 16.4 nM and a maximal response (Emax) of 84.7 ± 2.19%. At κ-opioid receptor [4], this compound gave a half-maximal effective concentration (EC50) of 624 ± 83.6 nM and an Emax of 73 ± 6.99%.
`CN1CC[C@]23Cc4[nH]c(=O)c(C(=O)N5CCOCC5)cc4C[C@@]2(O)[C@H]1Cc1ccc(O)cc13` [Compound 47, (6R,6aS,12aR)-2,6a-dihydroxy-15-methyl-9-(morpholine-4-carbonyl)-6a,7,11,12-tetrahydro-5H-6,12a-(epiminoethano)naphtho[2,1-g]quinolin-10(6H)-one]: the figures for the EC50 at μ-opioid receptor [2] and on κ-opioid receptor [4] were 156 ± 12.7 nM and 511 ± 139 nM, respectively. Moreover, the maximal effect (Emax) at μ-opioid receptor [2] is 82 ± 1.73%; at κ-opioid receptor [4], 50 ± 2.74%.
Taken in the same sequence, the figures for `CN1CC[C@]23Cc4[nH]c(=O)c(C(=O)N5CCCC5)cc4C[C@@]2(O)[C@H]1Cc1ccc(O)cc13` [Compound 48, (6R,6aS,12aR)-2,6a-dihydroxy-15-methyl-9-(pyrrolidine-1-carbonyl)-6a,7,11,12-tetrahydro-5H-6,12a-(epiminoethano)naphtho[2,1-g]quinolin-10(6H)-one] were 97.4 ± 4.35 nM, 226 ± 4.41 nM, 82.7 ± 0.88% and 90.3 ± 5.46%.
Taken in the same sequence, the figures for `CC(C)CCNC(=O)c1cc2c([nH]c1=O)C[C@]13CCN(C)[C@H](Cc4ccc(O)cc41)[C@]3(O)C2` [Compound 49, (6R,6aS,12aR)-2,6a-dihydroxy-N-isopentyl-15-methyl-10-oxo-6,6a,7,10,11,12-hexahydro-5H-6,12a-(epiminoethano)naphtho[2,1-g]quinoline-9-carboxamide] were 445 ± 63.8 nM, 204 ± 68.1 nM, 80 ± 3.61% and 63 ± 1.73%.
Taken in the same sequence, the figures for `C[C@H](NC(=O)c1cc2c([nH]c1=O)C[C@]13CCN(C)[C@H](Cc4ccc(O)cc41)[C@]3(O)C2)C(N)=O` [Compound 50, (6R,6aS,12R)—N—((S)-1-amino-1-oxopropan-2-yl)-26a-dihydroxy-15-methyl-10-oxo-6,6a,7,10,11,12-hexahydro-5H-6,12a-(epiminoethano)naphtho[2.1-g]quinoline-9-carboxamide] were 204 ± 11.3 nM, 1070 ± 157 nM, 95 ± 1.15% and 54 ± 2.74%.
On μ-opioid receptor [2], `CN1CC[C@]23Cc4[nH]c(=O)c(C(=O)N[C@@H](Cc5ccccc5)C(N)=O)cc4C[C@@]2(O)[C@H]1Cc1ccc(O)cc13` [Compound 51, (6R,6aS,12R)—N—((S)-1-amino-1-oxo-3-phenylpropan-2-yl)-2,6a-dihydroxy-15-methyl-10-oxo-6,6a,7,10,11,12-hexahydro-5H-6,12a-(epiminoethano)naphtho[2.1-g]quinoline-9-carboxamide] gave an EC50 of 126 ± 14.3 nM and an Emax of 97.7 ± 1.45%. On κ-opioid receptor [4], this compound came in with an EC50 of 488 ± 79.4 nM and an Emax of 39.3 ± 3.84%.
In the same order, the values of `CC(C)C[C@H](NC(=O)c1cc2c([nH]c1=O)C[C@]13CCN(C)[C@H](Cc4ccc(O)cc41)[C@]3(O)C2)C(N)=O` [Compound 52, (6R,6aS,12R)—N—((S)-1-amino-4-methyl-1-oxopentan-2-yl)-2,6a-dihydroxy-15-methyl-10-oxo-6,6a,7,10,11,12-hexahydro-5H-6,12a-(epiminoethano)naphtho[2.1-g]quinoline-9-carboxamide] are 244 ± 10.8 nM, 97.7 ± 1.45%, 3790 ± 1570 nM and 28.8 ± 2.17%.
In the same order, the values of `CN1CC[C@]23Cc4[nH]c(=O)c(C(=O)N5CCC[C@H]5C(N)=O)cc4C[C@@]2(O)[C@H]1Cc1ccc(O)cc13` [Compound 53, (S)-1-((6R,6aS,12R)-2,6a-dihydroxy-15-methyl-10-oxo-6,6a,7,10,11,12-hexahydro-5H-6,12a-(epiminoethano)naphtho[2.1-g]quinoline-9-carbonyl)pyrrolidine-2-carboxamide] are 123 ± 6.15 nM, 84 ± 2.08%, 602 ± 173 nM and 68.3 ± 3.38%.
Taken in the same sequence, the figures for `O=C(c1cc2c([nH]c1=O)C[C@]13CCN(CC4CC4)[C@H](Cc4ccc(O)cc41)[C@@H]3C2)N1CCCC1` [Compound 55, (6R,6aS,12R)-15-(cyclopropylmethyl)-2-hydroxy-9-(pyrrolidine-1-carbonyl)-6,6a,7,12-tetrahydro-5H-6,12a-(epiminoethano)naphtho[2.1-g]quinolin-10(11H)-one] were 0.79 ± 0.31 nM, 17.6 ± 0.68%, 0.33 ± 0.037 nM and 86 ± 2.68%.
In the case of `O=C(c1ccccc1)c1cc2c([nH]c1=O)C[C@]13CCN(CC4CC4)[C@H](Cc4ccc(O)cc41)[C@]3(O)C2` [Compound 59, (6R,6aS,12R)-9-benzoyl-15-(cyclopropylmethyl)-2,6a-dihydroxy-6,6a,7,12-tetrahydro-5H-6,12a-(epiminoethano)naphtho[2.1-g]quinolin-10(11H)-one], the EC50 at μ-opioid receptor [2] is greater than 20000 nM; on κ-opioid receptor [4], 17900 ± 7550 nM. The Emax is 2.5% on μ-opioid receptor [2] and 16.8 ± 1.44% on κ-opioid receptor [4].

A word on the EC50: it is the midpoint of the concentration-response curve. The term Emax denotes the maximal effect, on the per cent scale that the assay sets.
